{"source": "ChEMBL document CHEMBL1127959", "about": "“Thia-prostanoid analogs with combined thromboxane receptor antagonist/thromboxane synthase inhibitor activities. Synthesis and pharmacological evaluation” (Bioorg Med Chem Lett, 1994)"}
{"target": "T1, Thromboxane-A synthase (Homo sapiens, UniProt P24557)", "T1 sequence (P24557 whole entry)": "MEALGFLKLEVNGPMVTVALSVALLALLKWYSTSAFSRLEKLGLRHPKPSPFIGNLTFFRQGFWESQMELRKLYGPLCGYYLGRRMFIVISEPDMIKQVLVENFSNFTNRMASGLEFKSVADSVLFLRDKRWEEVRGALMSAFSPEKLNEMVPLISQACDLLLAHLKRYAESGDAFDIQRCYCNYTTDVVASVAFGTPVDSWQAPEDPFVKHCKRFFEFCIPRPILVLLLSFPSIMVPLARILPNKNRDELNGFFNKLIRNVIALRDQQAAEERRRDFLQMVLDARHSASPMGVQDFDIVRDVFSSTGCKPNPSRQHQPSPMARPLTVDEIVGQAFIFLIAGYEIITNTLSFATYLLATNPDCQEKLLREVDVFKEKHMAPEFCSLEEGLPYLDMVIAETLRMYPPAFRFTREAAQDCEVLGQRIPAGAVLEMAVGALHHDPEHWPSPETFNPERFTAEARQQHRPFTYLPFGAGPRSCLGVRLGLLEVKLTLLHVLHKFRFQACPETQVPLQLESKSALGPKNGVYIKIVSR", "assay": "In vitro inhibition of thromboxane synthase; call rule not given here", "units": {"IC50": "nM"}}
{"smiles": "O=C(O)CC/C=C\\CC[C@H]1[C@@H](OCc2ccc(-c3ccccc3)cc2)CS(=O)(=O)[C@@H]1c1cccnc1", "IC50": "> 200"}
{"smiles": "O=C(O)CC/C=C\\CC[C@@H]1[C@@H](c2cccnc2)SC[C@H]1OCc1ccc(-c2ccccc2)cc1", "note": "(stereo in doubt; (-))", "IC50": 13}
{"smiles": "O=C(O)CC/C=C\\CC[C@@H]1[C@@H](c2cccnc2)[S@@+]([O-])C[C@H]1OCc1ccc(-c2ccccc2)cc1", "IC50": "> 200"}
{"smiles": "O=C(O)CC/C=C\\CC[C@@H]1[C@@H](c2cccnc2)SC[C@H]1OCc1ccc(-c2ccccc2)cc1", "note": "(stereo in doubt; 1)", "IC50": 10}
{"smiles": "O=C(O)CC/C=C\\CC[C@@H]1[C@@H](c2cccnc2)SC[C@H]1OCc1ccc(-c2ccccc2)cc1", "note": "(stereo in doubt; (+))", "IC50": 18}
{"smiles": "O=C(O)CCC/C=C\\C[C@@H]1[C@@H](c2cccnc2)SC[C@H]1OCc1ccc(-c2ccccc2)cc1", "IC50": 43}
{"smiles": "O=C(O)CC/C=C\\CC[C@@H]1[C@@H](c2cccnc2)S(=O)(=O)C[C@H]1OCc1ccc(-c2ccccc2)cc1", "IC50": "> 200"}
{"smiles": "O=C(O)CC/C=C\\CC[C@H]1[C@@H](OCc2ccc(-c3ccccc3)cc2)CS[C@@H]1c1cccnc1", "IC50": 11}
{"smiles": "O=C(O)CCCCCc1cccc2cncn12", "note": "[PIRMAGREL]", "IC50": 3}
{"smiles": "O=C(O)CC/C=C\\CC[C@H]1[C@@H](OCc2ccc(-c3ccccc3)cc2)C[S+]([O-])[C@@H]1c1cccnc1", "note": "(some centres not stated)", "IC50": "> 100"}
{"smiles": "O=C(O)CC/C=C\\CC[C@@H]1[C@@H](c2cccnc2)[S@+]([O-])C[C@H]1OCc1ccc(-c2ccccc2)cc1", "IC50": "> 200"}
{"target": "T2, Thromboxane A2 receptor (Homo sapiens, UniProt P21731)", "T2 sequence (P21731 whole entry)": "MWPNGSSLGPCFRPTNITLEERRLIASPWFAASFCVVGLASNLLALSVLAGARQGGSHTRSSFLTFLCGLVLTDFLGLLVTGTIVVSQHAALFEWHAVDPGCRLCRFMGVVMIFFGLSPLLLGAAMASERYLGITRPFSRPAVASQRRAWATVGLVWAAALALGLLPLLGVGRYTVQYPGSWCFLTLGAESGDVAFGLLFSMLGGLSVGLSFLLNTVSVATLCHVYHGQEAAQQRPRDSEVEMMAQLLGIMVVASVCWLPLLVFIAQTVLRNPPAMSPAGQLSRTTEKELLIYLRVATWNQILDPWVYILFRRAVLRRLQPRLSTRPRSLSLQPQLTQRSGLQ", "assay": "In vitro thromboxane receptor antagonist activity was determined by inhibition of U-46619 induced aggregation of washed human platelets", "type": "functional"}
{"smiles": "O=C(O)CCCCCc1cccc2cncn12", "note": "[PIRMAGREL]", "IC50": "Not Active"}
